pIC50: −log10 of the molar value.
How the values were obtained:
[1] = Pharmacokinetics assay in BALB/C nude mice after intragastrical administration; format: in vivo; conditions: female, mouse, plasma, po, 3 mg/kg; for AUC: read-out: Area Under Curve AUC; for CL/F: read-out: Clearance CL/F (converted); for half-life: read-out: Half-Life t½ (converted); for MRT: read-out: Mean Residence Time MRT; for Cmax: read-out: Plasma Conc. Cmax
Description: BALB/C nude mice were used as test animals. The drug concentration in plasma at different time points was determined by LC/MS/MS after intragastrical administration of the compounds of Examples 10, 14, 20, 21, 57, 68, 71, 73, 74, 76 and 89 to BALB/C nude mice. The pharmacokinetic behavior of the compounds of the present invention was studied and evaluated in BALB/C nude mice.
Ninety-nine (99) female BALB/C nude mice were equally divided into 11 groups, which were purchased from SINO-BRITSH SIPPR/BK LAB. ANIMAL LTD., CO, with Certificate No.: SCXK (Shanghai) 2008-0016.
The appropriate amount of each test compound was weighed, and successively added with 9% PEG400+0.5% tween 80+0.5% PVP+90% aqueous solution of 0.5% CMC.
After an overnight fast, 99 female BALB/C nude mice were equally divided into 11 groups, and administered the test compounds intragastrically at an administration volume of 0.2 mL/10 g.
Blood (0.1 mL) was sampled (3 mice at each time point) at 0.5, 1.0, 2.0, 4.0, 6.0, 8.0, 11.0 and 24.0 hours after administration. The samples were stored in heparinized test tubes, and centrifuged for 10 minutes at 3,500 rpm to separate the blood plasma. The plasma samples were stored at −20° C. The plasma concentration of the test compounds in BALB/C nude mice after intragastrical administration was determined by LC/MS/MS.
Pharmacokinetic parameters of the compounds of Examples 10, 14, 20, 21, 57, 68, 71, 73, 74, 76 and 89 of the present invention are shown below.

MCF7 cells = assay: Inhibition of the proliferation of MCF7 cells (Cell Titer-Glo); format: cell-based; conditions: Homo sapiens, MCF-7 cells, 72 hours, read-out: IC50 value of inhibition effect on the proliferation of MCF7 cells
In short: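 Viability by Cell Titer-Glo luminescence; IC50 from signal versus log concentration.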

estrogen receptor (ER) = estrogen receptor (ER) (Homo sapiens (Human), UniProt P03372); assay: Inhibition of the binding of estrogen (E) to estrogen receptor (ER), MCF-7/ERE-luciferase reporter cells; format: cell-based; conditions: MCF-7/ERE-luciferase cells, 0.1 nM estradiol, 24 hours; read-out: IC50 value of inhibition effect on the binding of E to ER
Sequence of estrogen receptor (ER) (P03372 whole entry): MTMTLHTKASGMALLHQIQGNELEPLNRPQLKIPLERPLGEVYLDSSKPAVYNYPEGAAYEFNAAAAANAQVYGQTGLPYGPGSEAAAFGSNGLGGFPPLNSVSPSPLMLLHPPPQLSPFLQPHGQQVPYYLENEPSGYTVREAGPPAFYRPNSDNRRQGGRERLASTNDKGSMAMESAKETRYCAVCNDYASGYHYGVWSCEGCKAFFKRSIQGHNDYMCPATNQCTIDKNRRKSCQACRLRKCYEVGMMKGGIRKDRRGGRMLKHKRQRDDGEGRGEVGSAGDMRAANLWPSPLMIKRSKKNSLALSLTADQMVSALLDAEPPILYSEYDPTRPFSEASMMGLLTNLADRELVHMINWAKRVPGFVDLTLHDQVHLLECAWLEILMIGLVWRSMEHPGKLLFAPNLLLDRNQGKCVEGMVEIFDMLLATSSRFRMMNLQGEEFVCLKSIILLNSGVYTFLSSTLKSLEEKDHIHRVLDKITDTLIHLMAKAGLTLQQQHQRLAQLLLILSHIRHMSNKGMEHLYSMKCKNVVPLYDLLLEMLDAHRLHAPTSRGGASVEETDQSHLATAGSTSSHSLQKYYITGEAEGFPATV

ERα = ERα (Homo sapiens (Human), UniProt P03372); assay: Degradation effect on ERα in MCF-7 cells (ERα Duoset ELISA); format: cell-based; conditions: MCF-7 cells; read-out: IC50 value of the degradation effect on ERα
Sequence of ERα (P03372 whole entry): as above
Description: In order to determine the degradation effect on ER induced by the compounds of the present invention, the following method was used to determine the degradation effect of the compounds of the present invention on ER.
MCF-7 cell line (TChu 74, Cell Bank of Chinese Academy of Sciences typical culture preservation Committee)
ERα Duoset Kit (#DYC5715E, R&D System)
MCF-7 cells were incubated in DMEM/F-12 medium containing 10% FBS.
On the first day of the experiment, MCF-7 cells were resuspended in DMEM/F-12 medium containing 10% FBS treated by activated carbon, then inoculated into a 48-well plate with a density of 50,000 cells/well and incubated for 22-24 hours.
On the second day of the experiment, the test compound was diluted with medium and added to a 48-well plate. The ERα-capture antibody was diluted to 1 μg/ml with PBS, and added to a 96-well plate at 100 μl/well. The plate was sealed and coated overnight at room temperature.
On the third day of the experiment, the coated 96-well plate was washed twice with PBS, added with a sealing solution (1% BSA in PBS) at 110 μl/well and sealed for 1 hour at room temperature. The 48-well plate was washed once with PBS, and the residual liquid was removed. Then, 60 μl of lysis (6 M urea, 1 mM EDTA, 0.5% Triton X-100, 1 mM PMSF, Protease Inhibitor cocktail) was added to each well. After lysis on ice for 15 minutes, the diluent (1 mM EDTA, 0.5% TritonX-100 dissolved in PBS) was added. The cell-diluted lysate was transferred to a 96-well plate at 100 μl/well, then the plate was incubated at room temperature for 2 hours. The diluted primary antibody was added after the plate was washed 4 times with a washing liquid (PBST). After incubation for 1 hour, the 96-well plate was washed 4 times, and the second antibody was added, then the plate was incubated for 30 minutes. After the plate was washed with a washing liquid, TMB chromogenic solution was added and incubated for 15 minutes. The reaction was stopped by the addition of 1 M H2SO4, then the light absorption at 450 nm was read.

SMILES | pIC50 (MCF7 cells) | pIC50 (estrogen receptor (ER)) | DC50 (ERα) | AUC [1] | CL/F [1] | half-life [1] | MRT [1] | Cmax [1]
CC1Cc2cc(-c3ccc(N4CCOCC4)cc3)ccc2C(c2c(F)cc(/C=C/C(=O)O)cc2F)N1CC(C)(C)F [Example 60, (E)-3-(3,5-difluoro-4-((1S,3R/1R,3S)-2-(2-fluoro-2-methylpropyl)-3-methyl-6-(4-morpholinophenyl)-1,2,3,4-tetrahydroisoquinolin-1-yl)phenyl)acrylic acid] | 8.68 | 8.15 | 7.35 nM |  |  |  |  | 
C[C@@H]1Cc2cc(-c3ccc4ncccc4c3)ccc2[C@@H](c2c(F)cc(/C=C/C(=O)O)cc2F)N1CC(C)(C)F [Example 64, (E)-3-(3,5-difluoro-4-((1S,3R)-2-(2-fluoro-2-methylpropyl)-3-methyl-6-(quinolin-6-yl)-1,2,3,4-tetrahydroisoquinolin-1-yl)phenyl)acrylic acid] | 9.66 | 8.97 | 4.72 nM |  |  |  |  | 
C[C@@H]1Cc2c(oc3ccccc23)[C@@H](c2c(F)cc(/C=C/C(=O)O)cc2F)N1CC(C)(C)F [Example 68, (E)-3-(3,5-difluoro-4-((1R,3R)-2-(2-fluoro-2-methylpropyl)-3-methyl-1,2,3,4-tetrahydrobenzofuro[2,3-c]pyridin-1-yl)phenyl)acrylic acid] | 10.40 | 9.51 | 0.11 nM | 13200 ng·h/mL | 105 mL/min/kg | 2.32 h | 3.7 h | 3420 ng/mL
C[C@@H]1Cc2cc3c(cc2[C@@H](c2c(F)cc(/C=C/C(=O)O)cc2F)N1CC(C)(C)F)OCO3 [Example 71, (E)-3-(3,5-difluoro-4-((5S,7R)-6-(2-fluoro-2-methylpropyl)-7-methyl-5,6,7,8-tetrahydro-[1,3]dioxolo[4,5-g]isoquinolin-5-yl)phenyl)acrylic acid] | 9.92 | 9.13 | 0.06 nM | 8810 ng·h/mL | 158 mL/min/kg | 1.59 h | 2.62 h | 4130 ng/mL
CC1Cc2cc3ocnc3cc2C(c2c(F)cc(/C=C/C(=O)O)cc2F)N1CC(C)(C)F [Example 81, (E)-3-(3,5-difluoro-4-((5S,7R/5R,7S)-6-(2-fluoro-2-methylpropyl)-7-methyl-5,6,7,8-tetrahydrooxazolo[5,4-g]isoquinolin-5-yl)phenyl)acrylic acid] | 8.47 | 8.39 | 1.62 nM |  |  |  |  | 
CC1Cc2c(oc3cc(F)ccc23)C(c2c(F)cc(/C=C/C(=O)O)cc2F)N1CC(C)(C)F [Example 86, (E)-3-(3,5-difluoro-4-((1R,3R/1S,3S)-7-fluoro-2-(2-fluoro-2-methylpropyl)-3-methyl-1,2,3,4-tetrahydrobenzofuro[2,3-c]pyridin-1-yl)phenyl)acrylic acid] | 9.19 | 8.35 | 7.13 nM |  |  |  |  | 
CC1Cc2c(oc3ccc(-c4cn[nH]c4)cc23)C(c2c(F)cc(/C=C/C(=O)O)cc2F)N1CC(C)(C)F [Example 88, (E)-3-(3,5-difluoro-4-((1R,3R/1S,3S)-2-(2-fluoro-2-methylpropyl)-3-methyl-6-(1H-pyrazol-4-yl)-1,2,3,4-tetrahydrobenzofuro[2,3-c]pyridin-1-yl)phenyl)acrylic acid] | 9.17 | 8.91 | 1.61 nM |  |  |  |  | 
CC1Cc2cc3[nH]ncc3cc2C(c2c(F)cc(/C=C/C(=O)O)cc2F)N1CC(C)(C)F [Example 91, (E)-3-(3,5-difluoro-4-((5S,7R/5R,7S)-6-(2-fluoro-2-methylpropyl)-7-methyl-5,6,7,8-tetrahydro-1H-pyrazolo[3,4-g]isoquinolin-5-yl)phenyl)acrylic acid] | 9.08 | 8.73 | 2.33 nM |  |  |  |  | 
C[C@@H]1Cc2c(ccc3[nH]ncc23)[C@@H](c2c(F)cc(/C=C/C(=O)O)cc2F)N1CC(C)(C)F [Example 94, (E)-3-(3,5-difluoro-4-((6S,8R)-7-(2-fluoro-2-methylpropyl)-8-methyl-6,7,8,9-tetrahydro-3H-pyrazolo[4,3-f]isoquinolin-6-yl)phenyl)acrylic acid] | 10.52 | 10.40 | 0.02 nM |  |  |  |  | 
CCn1cc(-c2ccc3oc4c(c3c2)C[C@@H](C)N(CC(C)(C)F)[C@@H]4c2c(F)cc(/C=C/C(=O)O)cc2F)cn1 [Example 97, (E)-3-(4-((1R,3R)-6-(1-ethyl-1H-pyrazol-4-yl)-2-(2-fluoro-2-methylpropyl)-3-methyl-1,2,3,4-tetrahydrobenzofuro[2,3-c]pyridin-1-yl)-3,5-difluorophenyl)acrylic acid] | 9.70 | 9.62 | 6.11 nM |  |  |  |  | 

Second part, led by results:

pIC50 (MCF7 cells) | pIC50 (estrogen receptor (ER)) | DC50 (ERα) | SMILES | AUC [1] | CL/F [1] | half-life [1] | MRT [1] | Cmax [1]
10.22 | 9.54 | 0.64 nM | C[C@@H]1Cc2cc(-c3cnn(C(F)F)c3)ccc2[C@@H](c2c(F)cc(/C=C/C(=O)O)cc2F)N1CC(C)(C)F [Example 14, (E)-3-(4-((1S,3R)-6-(1-(difluoromethyl)-1H-pyrazol-4-yl)-2-(2-fluoro-2-methylpropyl)-3-methyl-1,2,3,4-tetrahydroisoquinolin-1-yl)-3,5-difluorophenyl)acrylic acid] | 32700 ng·h/mL | 25.5 mL/min/kg | 4.74 h | 5.93 h | 6750 ng/mL
11.00 | 9.48 | 0.1 nM | C[C@@H]1Cc2cc(-c3cnn(C)c3)ccc2[C@@H](c2c(F)cc(/C=C/C(=O)O)cc2F)N1CC(C)(C)F [Example 57, (E)-3-(3,5-difluoro-4-((1S,3R)-2-(2-fluoro-2-methylpropyl)-3-methyl-6-(1-methyl-1H-pyrazol-4-yl)-1,2,3,4-tetrahydroisoquinolin-1-yl)phenyl)acrylic acid] | 15100 ng·h/mL | 55.2 mL/min/kg | 2.78 h | 3.23 h | 5070 ng/mL
8.87 | 9.08 | 1.79 nM | CC1Cc2cc(-c3cnn(C4CC4)c3)ccc2C(c2c(F)cc(/C=C/C(=O)O)cc2F)N1CC(C)(C)F [Example 58, (E)-3-(4-((1S,3R/1R,3S)-6-(1-cyclopropyl-1H-pyrazol-4-yl)-2-(2-fluoro-2-methylpropyl)-3-methyl-1,2,3,4-tetrahydroisoquinolin-1-yl)-3,5-difluorophenyl)acrylic acid] |  |  |  |  | 
8.89 | 8.25 | 6.25 nM | CC1Cc2cc(-c3ccccc3)ccc2C(c2c(F)cc(/C=C/C(=O)O)cc2F)N1CC(C)(C)F [Example 59, (E)-3-(3,5-difluoro-4-((1S,3R/1R,3S)-2-(2-fluoro-2-methylpropyl)-3-methyl-6-phenyl-1,2,3,4-tetrahydroisoquinolin-1-yl)phenyl)acrylic acid] |  |  |  |  | 
10.15 | 8.26 | 6.69 nM | CC1Cc2cc(-c3ccc4[nH]ncc4c3)ccc2C(c2c(F)cc(/C=C/C(=O)O)cc2F)N1CC(C)(C)F [Example 67, (E)-3-(3,5-difluoro-4-((1S,3R/1R,3S)-2-(2-fluoro-2-methylpropyl)-6-(1H-indazol-5-yl)-3-methyl-1,2,3,4-tetrahydroisoquinolin-1-yl)phenyl)acrylic acid] |  |  |  |  | 
